The results in this text go back to PubChem BioAssay AID180 (DTP/NCI, 2004).

For this test, the system named is BDF1 mice, Adenocarcinoma 755 s.c., tumor weight T/C. The experiment in a line: NCI In Vivo Anticancer Drug Screen. Data for tumor model Adenocarcinoma 755 (subcutaneous) in B6D2F1 (BDF1) mice. The following applies: endpoint: mean tumor weight, schedule: Q01DX011 (ip), higher = larger tumour. The procedure, abridged: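 Compound activity was tested in mice carrying transplanted tumors. Survival or tumor size was measured, and each value is the treated-group measurement divided by that of the vehicle-treated control group (T/C).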

Setting [1] is: dose: 50.0 mg/kg/injection, vehicle: methylcellulose (MC).
Where [2] appears, read: dose: 200.0 mg/kg/injection, vehicle: carboxymethylcellulose (CMC).
[3] abbreviates: dose: 25.0 mg/kg/injection, vehicle: carboxymethylcellulose (CMC).
Where [4] appears, read: dose: 1.0 mg/kg/injection, vehicle: carboxymethylcellulose (CMC).
Where [5] appears, read: dose: 2.0 mg/kg/injection, vehicle: carboxymethylcellulose (CMC).

SMILES strings stand for the structures. “And” between values parts separate entries of the source, which are not always exact repeats. Identical values can stand only once.

As for `CN(CCO)/N=N/c1nc[nH]c1C(N)=O`, the T/C (usually the result in the treated group divided by that in the control group, in per cent) was 60 % of control (dose: 42.0 mg/kg/injection, vehicle: carboxymethylcellulose (CMC)); 57 % of control (dose: 93.0 mg/kg/injection, vehicle: carboxymethylcellulose (CMC)); 26 % of control (dose: 187.0 mg/kg/injection, vehicle: carboxymethylcellulose (CMC)).
Take `Nc1nc(SCc2ccccc2[N+](=O)[O-])c2ncn(C3OC(CO)C(O)C3O)c2n1` (stereo not drawn): the T/C (dose: 12.5 mg/kg/injection, vehicle: methylcellulose (MC)) is 21 % of control; the T/C (dose: 25.0 mg/kg/injection, vehicle: methylcellulose (MC)) was 7 % of control; the T/C under setting [1] was 2 % of control.
As for `COC12C(COC(N)=O)C3=C(C(=O)C(C)=C(N)C3=O)N1CC1C2N1C` (stereo not drawn), the T/C runs as follows: (dose: 1.25 mg/kg/injection, vehicle: carboxymethylcellulose (CMC)) 62 % of control; (dose: 2.5 mg/kg/injection, vehicle: carboxymethylcellulose (CMC)) 52 % of control; (dose: 5.0 mg/kg/injection, vehicle: carboxymethylcellulose (CMC)) 27 % of control; (dose: 10.0 mg/kg/injection, vehicle: carboxymethylcellulose (CMC)) 3 % of control and 7 % of control.
Regarding `O=c1[nH]cnc2c1ncn2CCO`, the T/C is 40 % of control (dose: 43.75 mg/kg/injection, vehicle: methylcellulose (MC)); 100 % of control (dose: 87.5 mg/kg/injection, vehicle: methylcellulose (MC)); 123 % of control (dose: 175.0 mg/kg/injection, vehicle: methylcellulose (MC)); 99 % of control (dose: 350.0 mg/kg/injection, vehicle: methylcellulose (MC)).
Consider `Cc1cc2c(cc1C)NC(C)CC(=O)N2` (stereo not drawn), for which the T/C reads like this: (dose: 50.0 mg/kg/injection, vehicle: carboxymethylcellulose (CMC)) 89 % of control; (dose: 50.0 mg/kg/injection, vehicle: other) 80 % of control; (dose: 100.0 mg/kg/injection, vehicle: other) 48 % of control; under setting [2], 84 % of control.
`CN(C)c1nc(S(=O)(=O)N(C)C)nc2nc[nH]c12`: the T/C is 115 % of control under setting [3]; 117 % of control (dose: 75.0 mg/kg/injection, vehicle: carboxymethylcellulose (CMC)); 95 % of control (dose: 225.0 mg/kg/injection, vehicle: carboxymethylcellulose (CMC)).
Consider `CCOc1ccccc1Nc1nc(N)nc(Cl)c1CC`, for which the T/C (dose: 15.0 mg/kg/injection, vehicle: methylcellulose (MC)) was 73 % of control; the T/C (dose: 31.0 mg/kg/injection, vehicle: methylcellulose (MC)) is 79 % of control; the T/C (dose: 62.0 mg/kg/injection, vehicle: methylcellulose (MC)) is 87 % of control; the T/C (dose: 125.0 mg/kg/injection, vehicle: methylcellulose (MC)) was 98 % of control; the T/C (dose: 250.0 mg/kg/injection, vehicle: methylcellulose (MC)) is 100 % of control.
For the molecule `O=C(CCl)N1c2ccccc2Oc2cc3ccccc3cc21`, the T/C is, setting by setting: (dose: 4.4 mg/kg/injection, vehicle: methylcellulose (MC)) 78 % of control; (dose: 6.6 mg/kg/injection, vehicle: methylcellulose (MC)) 62 % of control; (dose: 10.0 mg/kg/injection, vehicle: methylcellulose (MC)) 54 % of control; (dose: 14.0 mg/kg/injection, vehicle: methylcellulose (MC)) 45 % of control; (dose: 14.0 mg/kg/injection, vehicle: other) 120 % of control; (dose: 28.0 mg/kg/injection, vehicle: methylcellulose (MC)) 33 % of control. Besides, the T/C is 87 % of control (dose: 28.0 mg/kg/injection, vehicle: other); 61 % of control (dose: 56.0 mg/kg/injection, vehicle: other); 94 % of control (dose: 112.0 mg/kg/injection, vehicle: other).
On to `CNc1nc(N)nc(Nc2ccc(I)cc2)c1N=O`, for which the T/C is 52 % of control (dose: 12.5 mg/kg/injection, vehicle: carboxymethylcellulose (CMC)); 39 % of control and 52 % of control under setting [3]; 31 % of control under setting [1]; 20 % of control and 36 % of control and 38 % of control (dose: 100.0 mg/kg/injection, vehicle: carboxymethylcellulose (CMC)); 46 % of control (dose: 100.0 mg/kg/injection, vehicle: methylcellulose (MC)); 28 % of control and 30 % of control under setting [2]. Moreover, the T/C (dose: 200.0 mg/kg/injection, vehicle: methylcellulose (MC)) is 25 % of control and the T/C (dose: 400.0 mg/kg/injection, vehicle: methylcellulose (MC)) was 12 % of control.
Take `Nc1n[se]nc1C(=O)O`: the T/C (dose: 0.75 mg/kg/injection, vehicle: carboxymethylcellulose (CMC)) is 82 % of control.
Take `Nc1nc(=S)c2ncn(C3OC(CO)C(O)C3O)c2[nH]1` (stereo not drawn): the T/C is 43 % of control (dose: 0.03 mg/kg/injection, vehicle: carboxymethylcellulose (CMC)); 90 % of control (dose: 0.07 mg/kg/injection, vehicle: carboxymethylcellulose (CMC)); 81 % of control (dose: 0.13 mg/kg/injection, vehicle: carboxymethylcellulose (CMC)); 29 % of control and 37 % of control (dose: 0.5 mg/kg/injection, vehicle: carboxymethylcellulose (CMC)); 6 % of control and 7 % of control under setting [4]; 4 % of control (dose: 1.5 mg/kg/injection, vehicle: carboxymethylcellulose (CMC)). The T/C is, setting by setting: (dose: 1.5 mg/kg/injection, vehicle: methylcellulose (MC)) 2 % of control; under setting [5], 4 % of control; (dose: 3.0 mg/kg/injection, vehicle: carboxymethylcellulose (CMC)) 3 % of control; (dose: 3.0 mg/kg/injection, vehicle: methylcellulose (MC)) 1 % of control.
With `S=P(N1CCCCCC1)(N1CC1)N1CC1`, the T/C runs as follows: under setting [4], 92 % of control; (dose: 1.75 mg/kg/injection, vehicle: saline) 58 % of control; under setting [5], 90 % of control; (dose: 3.13 mg/kg/injection, vehicle: saline) 68 % of control; (dose: 3.5 mg/kg/injection, vehicle: saline) 70 % of control; (dose: 4.0 mg/kg/injection, vehicle: carboxymethylcellulose (CMC)) 38 % of control. Also, the T/C is 26 % of control and 50 % of control (dose: 6.25 mg/kg/injection, vehicle: saline); 36 % of control (dose: 6.75 mg/kg/injection, vehicle: methylcellulose (MC)); 42 % of control (dose: 7.0 mg/kg/injection, vehicle: saline); 96 % of control (dose: 7.5 mg/kg/injection, vehicle: carboxymethylcellulose (CMC)); 23 % of control (dose: 8.0 mg/kg/injection, vehicle: carboxymethylcellulose (CMC)); 33 % of control (dose: 13.5 mg/kg/injection, vehicle: methylcellulose (MC)). The T/C (dose: 13.5 mg/kg/injection, vehicle: saline) was 29 % of control; the T/C (dose: 14.0 mg/kg/injection, vehicle: saline) was 5 % of control; the T/C (dose: 15.0 mg/kg/injection, vehicle: carboxymethylcellulose (CMC)) was 43 % of control; the T/C (dose: 16.0 mg/kg/injection, vehicle: carboxymethylcellulose (CMC)) was 6 % of control; the T/C (dose: 27.0 mg/kg/injection, vehicle: saline) was 25 % of control; the T/C (dose: 30.0 mg/kg/injection, vehicle: carboxymethylcellulose (CMC)) is 10 % of control. For the same molecule, the T/C (dose: 54.0 mg/kg/injection, vehicle: saline) was 24 % of control.
